The subject of assay [1] is phosphorylation of CDK1 at Thr14 in HCC1806 cells. Put plainly: Cell lysate AlphaLISA assay measuring inhibition of phosphorylation of CDK1 Thr14. The assay is classed as cell-based. The conditions noted are these: read-out: Cellular IC50. In short, it runs like this:
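HCC1806 cells seeded overnight, then treated 4 h at 37 °C, 5% CO2 with compounds in DMSO; washed and lysed, lysates frozen overnight at −80 °C. CDK1 Thr14 phosphorylation read by AlphaLISA SureFire Ultra; data normalized to DMSO (0% inhibition) and 3 μM reference compound to give IC50.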

The target in a further assay is T1, PKMYT1 (Homo sapiens, UniProt Q99640).
T1 construct: PKMYT1 (93 kD, full length, N-terminal GST tag from Signal Chem); GST (N); purchased Signal Chem
T1 sequence (Q99640 1-499): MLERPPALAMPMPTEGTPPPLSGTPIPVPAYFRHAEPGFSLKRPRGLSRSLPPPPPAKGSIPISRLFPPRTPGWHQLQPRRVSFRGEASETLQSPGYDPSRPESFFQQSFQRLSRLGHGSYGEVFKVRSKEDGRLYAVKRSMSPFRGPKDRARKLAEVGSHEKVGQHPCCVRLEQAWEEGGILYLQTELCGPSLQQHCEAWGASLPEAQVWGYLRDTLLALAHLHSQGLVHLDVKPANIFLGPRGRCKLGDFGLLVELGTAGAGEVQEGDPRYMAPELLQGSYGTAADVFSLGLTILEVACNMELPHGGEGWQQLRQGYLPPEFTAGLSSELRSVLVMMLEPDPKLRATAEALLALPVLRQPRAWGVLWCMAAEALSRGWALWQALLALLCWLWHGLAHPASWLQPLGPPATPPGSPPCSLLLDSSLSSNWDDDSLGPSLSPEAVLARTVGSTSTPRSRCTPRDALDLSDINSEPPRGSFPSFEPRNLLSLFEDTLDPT
As to the kind of experiment: ADP-Glo PKMYT1 ATP-depletion assay. Particulars: 50 nM PKMYT1, 13.3 nM CDK1, read-out: Biochemical IC50. The method in brief:
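Full-length N-terminal GST-tagged PKMYT1 (50 nM) with GST-CDK1 (13.3 nM) as substrate and 88 µM ATP, in Hepes buffer with MgCl2, MnCl2, DTT and BSA; DMSO <1%. Incubated 120 min at RT. ADP formed was quantified by ADP-Glo luminescence and used to derive biochemical IC50.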

Read-outs that look alike come from different tables or passages of the source.

On to `Cc1c(O)cccc1-c1c(N)c(C(N)=O)cc2nc(C(F)(F)F)cnc12` [Compound 189], for which the IC50 in assay [1] (4 hours) is 500 to 1000 nM; at PKMYT1, 50 to 500 nM.

In the case of `Cc1cccc(C)c1-c1c(N)c(C(N)=O)cc2nccnc12` [Compound 308], the IC50 in assay [1] (Homo sapiens, HCC1806, 4 h) is at least 5000 nM; on PKMYT1, at least 5000 nM.

For the compound `Cc1c(O)cccc1-c1c(N)c(C(N)=O)nc2cc(C(F)(F)F)ccc12` (atropisomer, axis not shown) [Compound 147], the IC50 (in assay [1] (4 hours); on PKMYT1) was 1000 to 5000 nM each time.

For the compound `Cc1cc(O)c(C)c(-c2c(N)c(C(N)=O)nc3cccnc23)c1` [Compound 291], the figures for the IC50 (in assay [1] (4 hours); on PKMYT1) were at least 5000 nM and 1000 to 5000 nM, respectively.

With `Cc1ccc(O)c(C)c1-c1c(N)c(C(N)=O)nc2ccc(C(F)(F)F)cc12` [Compound 34], the IC50 lay within 1000 to 5000 nM in assay [1] (Homo sapiens, HCC1806, 4 h) and 1000 to 5000 nM on PKMYT1.

`Cc1ccc(O)c(C)c1-c1c(N)c(C(N)=O)nc2cccnc12` [Compound 3, 3-Amino-4-(3-hydroxy-2,6-dimethylphenyl)-1,5-naphthyridine-2-carboxamide]: the IC50 in assay [1] (Homo sapiens, HCC1806, 4 h) is 50 to 500 nM; at PKMYT1, below 50 nM.

With `Cc1ccc(O)c(C)c1-c1c(N)c(C(N)=O)nc2ccc(Cl)cc12` (single isomer, unassigned) [Compound 54, (P)-3-amino-6-chloro-4-(3-hydroxy-2,6-dimethylphenyl)quinoline-2-carboxamide], the IC50 (in assay [1] (4 hours); at PKMYT1) was at least 5000 nM in each case.

For `CCn1ccc2cc(C(N)=O)c(N)c(-c3cccc(O)c3C)c2c1=O` (atropisomer, axis not shown) [Compound 328], the IC50 (in assay [1] (4 hours); at PKMYT1) was at least 5000 nM each time.

`NC(=O)c1cc2nccnc2c(-c2cc(O)cnc2Cl)c1N` [Compound 122, 7-Amino-8-(2-chloro-5-hydroxy-3-pyridyl)quinoxaline-6-carboxamide]: the IC50 in assay [1] (Homo sapiens, HCC1806, 4 h) was at least 5000 nM; on PKMYT1, 1000 to 5000 nM.

On to `CCn1ccc2cc(C(N)=O)c(N)c(-c3cccc(O)c3C)c2c1=O` [Compound 324], for which the IC50 in assay [1] (4 hours) was in the range of 500 to 1000 nM; on PKMYT1, 50 to 500 nM.

Regarding `Cc1cnc2cc(C(N)=O)c(N)c(-c3cccc(O)c3C)c2n1` (atropisomer, axis not shown) [Compound 169], the IC50 was 500 to 1000 nM in assay [1] (4 hours) and 50 to 500 nM on PKMYT1.

As for `COc1cncc(-c2c(N)c(C(N)=O)nc3cccnc23)c1C` (atropisomer, axis not shown) [Compound 185], the IC50 (in assay [1] (4 hours); on PKMYT1) was at least 5000 nM throughout.

For `Cc1c(O)cccc1-c1c(N)c(C(N)=O)nc2cccnc12` (single isomer, unassigned) [Compound 5, (M)-3-amino-4-(3-hydroxy-2-methylphenyl)-1,5-naphthyridine-2-carboxamide], the IC50 in assay [1] (4 hours) was 1000 to 5000 nM; at PKMYT1, 500 to 1000 nM.

As for `Cc1c(O)cccc1-c1c(N)c(C(N)=O)nc2ccccc12` [Compound 18, 3-Amino-4-(3-hydroxy-2-methylphenyl)quinoline-2-carboxamide], the IC50 in assay [1] (Homo sapiens, HCC1806, 4 h) was in the range of 1000 to 5000 nM; on PKMYT1, 50 to 500 nM.

For `Cc1cnc2c(-c3cccc(O)c3C)c(N)c(C(N)=O)cc2c1` [Compound 196], the half-inhibitory concentration (IC50) in assay [1] (Homo sapiens, HCC1806, 4 h) fell in the range of 1000 to 5000 nM; on PKMYT1, 50 to 500 nM.

`NC(=O)c1cc2nccnc2c(-c2ccc3ncoc3c2)c1N` [Compound 198]: the IC50 in assay [1] (Homo sapiens, HCC1806, 4 h) is at least 5000 nM; at PKMYT1 it was at least 5000 nM.

As for `Cc1c(O)cncc1-c1c(N)c(C(N)=O)nc2c1NCCC2` [Compound 334], the IC50 was at least 5000 nM in assay [1] (Homo sapiens, HCC1806, 4 h) and 1000 to 5000 nM at PKMYT1.

Regarding `Cc1c(-c2c(N)c(C(N)=O)cc3nccnc23)ccnc1O` [Compound 110, 7-Amino-8-(2-hydroxy-3-methylpyridin-4-yl)quinoxaline-6-carboxamide], the IC50 (in assay [1] (4 hours); on PKMYT1) was at least 5000 nM throughout.

`COc1ccnc2cc(C(N)=O)c(N)c(-c3cccc(O)c3C)c12` [Compound 333]: the IC50 in assay [1] (Homo sapiens, HCC1806, 4 h) was below 50 nM; on PKMYT1 it was 50 to 500 nM.

As for `Cc1ccc(O)c(C)c1-c1c(N)c(C(N)=O)cc2nc(C)c(C)nc12` [Compound 94, 7-Amino-8-(3-hydroxy-2,6-dimethylphenyl)-2,3-dimethylquinoxaline-6-carboxamide], the IC50 in assay [1] (Homo sapiens, HCC1806, 4 h) was 50 to 500 nM; on PKMYT1, below 50 nM.

As to `Cc1c(O)cccc1-c1c(N)c(C(N)=O)nc2cccc(F)c12` (single isomer, unassigned) [Compound 58, (M)-3-amino-5-fluoro-4-(3-hydroxy-2-methylphenyl)quinoline-2-carboxamide], the IC50 was at least 5000 nM in assay [1] (4 hours) and 1000 to 5000 nM on PKMYT1.

As for `Cc1ccc2[nH]nc(F)c2c1-c1c(N)c(C(N)=O)cc2nccnc12` (atropisomer, axis not shown) [Compound 299], the IC50 (in assay [1] (4 hours); at PKMYT1) was at least 5000 nM each time.

`Cc1ccc2[nH]ncc2c1-c1c(N)c(C(N)=O)cc2ncccc12` [Compound 144]: the IC50 was in the range of 1000 to 5000 nM in assay [1] (Homo sapiens, HCC1806, 4 h) and 50 to 500 nM at PKMYT1.

As for `Cn1ccc(-c2cc(C(N)=O)cc3nccnc23)cc1=O` [Compound 132], the IC50 in assay [1] (Homo sapiens, HCC1806, 4 h) was at least 5000 nM; on PKMYT1, at least 5000 nM.

Consider `Cc1ccc(O)c(C)c1-c1c(N)c(C(N)=O)cc2nc(C(F)(F)F)cnc12` [Compound 101, 7-Amino-8-(3-hydroxy-2,6-dimethylphenyl)-3-(trifluoromethyl)quinoxaline-6-carboxamide], for which the IC50 in assay [1] (Homo sapiens, HCC1806, 4 h) is 50 to 500 nM; at PKMYT1, 50 to 500 nM.

Take `N#Cc1cccc2nc(C(N)=O)c(N)c(-c3cncnc3)c12` [Compound 236]: the IC50 in assay [1] (Homo sapiens, HCC1806, 4 h) is at least 5000 nM; on PKMYT1 it was 1000 to 5000 nM.

`Cc1c(O)cccc1-c1c(N)c(C(N)=O)cc2ccn(C)c(=O)c12` (atropisomer, axis not shown) [Compound 336]: the IC50 in assay [1] (4 hours) was 50 to 500 nM; at PKMYT1 it was below 50 nM.

For `Cc1ccc(O)c(C)c1-c1c(N)c(C(N)=O)nc2c(C(F)(F)F)cccc12` [Compound 28, 3-Amino-4-(3-hydroxy-2,6-dimethylphenyl)-8-(trifluoromethyl)quinoline-2-carboxamide], the IC50 in assay [1] (Homo sapiens, HCC1806, 4 h) was in the range of 50 to 500 nM; on PKMYT1 it was 50 to 500 nM.

On to `Cc1ccc(O)c(C)c1-c1c(N)c(C(N)=O)cc2nc(N3CCC4(COC4)C3)cnc12` [Compound 339], for which the IC50 lay in the range of 1000 to 5000 nM in assay [1] (Homo sapiens, HCC1806, 4 h) and 50 to 500 nM at PKMYT1.

For `COc1cccc(-c2cc(C(N)=O)nc3c(C)ccc(C)c23)c1C` [Compound 134], the IC50 is at least 5000 nM in assay [1] (Homo sapiens, HCC1806, 4 h) and at least 5000 nM at PKMYT1.

As for `CC1=C(c2c(N)c(C(N)=O)nc3cccnc23)CCCC1=O` [Compound 303], the IC50 in assay [1] (Homo sapiens, HCC1806, 4 h) was at least 5000 nM; at PKMYT1 it was at least 5000 nM.

As for `NC(=O)c1cc2nccnc2c(-c2cc(O)ccc2F)c1N` [Compound 114, 7-Amino-8-(2-fluoro-5-hydroxyphenyl)quinoxaline-6-carboxamide], the IC50 in assay [1] (Homo sapiens, HCC1806, 4 h) is 1000 to 5000 nM; at PKMYT1, 50 to 500 nM.

Turning to `Cc1c(O)cccc1-c1c(N)c(C(N)=O)nc2cccnc12` (single isomer, unassigned) [Compound 4, (P)-3-Amino-4-(3-hydroxy-2-methylphenyl)-1,5-naphthyridine-2-carboxamide], the IC50 (in assay [1] (4 hours); on PKMYT1) was below 50 nM in each case.
